Experimental data: patent publication US20200281897A1, “INDAZOLE DERIVATIVES FOR CANCER TREATMENT” (Servicio Andaluz de Salud, priority 2016, published 2020)

Test system: U266
Assay: Cell viability by flow cytometry (annexin V/7-AAD), U266
Assay type: cell-based, human
Settings: U266, 18 hours
Procedure: The cell viability of the MM cell lines and primary cells from healthy PB donors was also evaluated by flow cytometry using 7-AAD/Annexin V. Patient bone marrow (BM) cells were analyzed using 7-AAD with a combination of monoclonal antibodies against myeloma-associated antigens (anti-CD56-APC, anti-CD45-Pacific Blue, and anti-CD38-APC-H7 [BD Biosciences]) and antibodies for distinguishing the granulomonocytic population (anti-CD64-FITC) and lymphocytic population (anti-CD45-Pacific Blue). The cells were acquired by means of FACSCanto II flow cytometer (BD Biosciences) and analyzed using Infinicyt™ Software (Cytognos, Spain).

## CS(=O)(=O)O.Cc1c(C(=O)c2cccc3ccccc23)c2cccc3c2n1[C@H](CN1CCOCC1)CO3 [WIN-55, (R)-(+)-[2,3-dihydro-5-methyl-3-(4-morpholinomethyl)-pyrrolo[1,2,3]-1,4-benzoxazin-6-yl]-1-naphthalenylmethanone mesylate]
  IC50: 18.5 µM
